Literature values in patent US7611733B2, “Nanoparticle formulations of platinum compounds” (priority 2004, dated 2009).
Structures can show the parent of a compound that is named as a salt.

Tested on: variety of tumor cell lines

[NH2][Pt+]([NH2])([Cl])[NH]CCCCCC[NH2+]CC[NH2+]CCCCCC[NH][Pt+]([NH2])([NH2])[Cl] [Formula II, bis{trans(diammine)(chloro)platinum(II)}μ(1,16-diamino-7,10-diazahexadecane-N1,N16) dinitrate salt. 2HNO3]
antitumor activity: outstanding antitumor activity
